Results as given in patent publication US20240245704A1, “PHARMACEUTICAL COMPOSITION AND USE OF MULTI-KINASE INHIBITOR” (TRANSTHERA SCIENCES (NANJING), INC., priority 2021, published 2024).

Tested on: human triple negative breast cancer BC408 subcutaneous xenograft tumor model
Assay: In vivo pharmacodynamic study on triple negative breast cancer patient-derived xenograft (PDX) subcutaneous tumor model
Design: species or system nude mice
Conditions: for TGI: TGI=1-T/C from relative tumor volumes
Experimental: The tumor masses were inoculated into the right back of the mice, the animals were weighed before administration, and tumor volumes were measured. Grouping was designed in blocks according to the tumor volume, with 8 mice per group except for the vehicle control, which contained 6 mice.
Administration was carried out as in Table 3 below.
Animals were monitored daily for health status and mortality, body weight and tumor volume were measured twice a week, and samples were collected after the last administration. […] T/C % is the relative tumor proliferation rate, i.e., the percentage of the relative tumor volume in the treatment and control groups at a given time point. T and C are relative tumor volumes (RTVs) of the treatment and control groups at a given time point, respectively. The calculation formula is as follows: T/C %=TRTV/CRTV×100% (TRTV: mean RTV for treatment group; CRTV: mean RTV for vehicle control group; RTV=Vt/V0, wherein V0 is the tumor volume of the animal at the time of grouping, and Vt is the tumor volume of the animal after treatment).

[1] = BC408 PDX in female nude mice, compound 29 15 mg/kg oral Qd*5 days/week, paclitaxel injection 25 mg/kg intraperitoneal Qw, 5 weeks

| Structure (SMILES) | TGI [1] | Tumor volume [1] | Inhibitory effect on the triple negative breast cancer PDX subcutaneous tumor model (in words) (BC408 PDX, doses as in Table 3) |
| --- | --- | --- | --- |
| CC(=O)O[C@H]1C(=O)[C@@]2(C)[C@H]([C@H](OC(=O)c3ccccc3)[C@]3(O)C[C@H](OC(=O)[C@H](O)[C@@H](NC(=O)c4ccccc4)c4ccccc4)C(C)=C1C3(C)C)[C@]1(OC(C)=O)CO[C@@H]1C[C@@H]2O [Paclitaxel, paclitaxel, reference compound] | 58% | – | – |
| Cc1[nH]nc2c1N=C(c1ccccc1Cl)c1cnc(N3CCOCC3)cc1N2 [Compound 29] | 72% | 666 mm^3 | significant inhibitory effect |
